As a reminder, the pIC50 is −log10 of the IC50, conventionally taken in molar units. High values mean a small IC50, low ones a large IC50.

IC50 data for 32 compounds are collected here from patent US8906852B2 (MethylGene Inc., priority 2010, dated 2014).

Each structure is given as a SMILES string. pIC50: −log10 of the molar value.

T1 sequence (P35968 806-1356): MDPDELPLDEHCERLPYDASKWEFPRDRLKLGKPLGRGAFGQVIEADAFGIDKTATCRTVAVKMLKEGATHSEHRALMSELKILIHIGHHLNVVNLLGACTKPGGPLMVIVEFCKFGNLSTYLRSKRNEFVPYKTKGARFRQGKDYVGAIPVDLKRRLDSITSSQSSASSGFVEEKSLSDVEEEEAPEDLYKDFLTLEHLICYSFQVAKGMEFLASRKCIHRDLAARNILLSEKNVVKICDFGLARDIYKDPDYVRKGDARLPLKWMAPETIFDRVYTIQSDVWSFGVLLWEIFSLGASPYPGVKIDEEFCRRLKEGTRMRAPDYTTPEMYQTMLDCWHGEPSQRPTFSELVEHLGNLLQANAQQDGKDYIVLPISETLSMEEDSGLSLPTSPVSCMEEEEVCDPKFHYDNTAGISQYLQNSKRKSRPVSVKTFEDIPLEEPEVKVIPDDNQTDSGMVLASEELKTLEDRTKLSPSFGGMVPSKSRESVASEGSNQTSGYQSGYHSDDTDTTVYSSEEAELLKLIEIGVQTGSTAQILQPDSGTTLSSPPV

The assay addresses T1, VEGFR/KDR (Homo sapiens, UniProt P35968).
T1 construct: made in house; host or cells: Sf9 cells (Spodoptera frugiperda), baculovirus
Briefly: VEGFR/KDR kinase inhibition, DELFIA assay. Conditions: ATP 0.6 uM (2x Km), enzyme 5 nM. It is filed as biochemical. The procedure: Inhibition of VEGFR/KDR is measured in a DELFIA™ assay (Perkin Elmer). The substrate poly(Glu4, Tyr) is immobilized onto black high-binding polystyrene 96-well plates. The coated plates are washed and stored at 4° C. During the assay, the enzyme is pre-incubated with inhibitor and Mg-ATP on ice in polypropylene 96-well plates for 4 minutes, and then transferred to the coated plates. The subsequent kinase reaction takes place at 30° C. for 10-30 minutes. ATP concentrations in the assay are 0.6 uM for VEGFR/KDR (2× the Km). Enzyme concentration is 5 nM. After incubation, the kinase reactions are quenched with EDTA and the plates are washed. Phosphorylated product is detected by incubation with Europium-labeled anti-phosphotyrosine MoAb. After washing the plates, bound MoAb is detected by time-resolved fluorescence in a Gemini SpectraMax reader (Molecular Devices). Compounds are evaluated over a range of concentrations, and IC50 values (concentration of compounds giving 50% inhibition of enzymatic activity) are determined.
Regarding `CS(=O)(=O)NC1CCN(Cc2ccc(-c3cc4nccc(Oc5ccc(NC(=O)NC6CC6)cc5F)c4s3)nc2)CC1` [Compound 350], the pIC50 was > 7.30.

As for `O=C(Nc1ccc(Oc2ccnc3cc(-c4cn(CC(=O)N5CCCC5)nn4)sc23)c(F)c1)NC1CC1` [Compound 373], the pIC50 was > 7.30.

`COCCN(Cc1ccc(-c2cc3nccc(Oc4ccc(NC(=O)NC5CC5)cc4F)c3s2)nc1)C(=O)COC` [Compound 85]: the negative-log IC50 (pIC50) was > 7.30.

For the compound `O=C(O)CCC(=O)N1CC=C(c2cc3nccc(Oc4ccc(NC(=O)NC5CC5)cc4F)c3s2)CC1` [Compound 273, 4-(4-(7-(4-(3-cyclopropylureido)-2-fluorophenoxy)thieno[3,2-b]pyridin-2-yl)-5,6-dihydropyridin-1(2H)-yl)-4-oxobutanoic acid], the pIC50 was ≤ 6.60.

`COCCN(Cc1ccc(-c2cc3nccc(Oc4ccc(NC(CC(=O)Nc5ccc(F)cc5)C(F)(F)F)cc4F)c3s2)nc1)C(C)=O` (centres unmarked) [Compound 39]: the pIC50 is > 7.30.

With `CC(=O)OCC(=O)N1CCN(Cc2ccc(-c3cc4nccc(Oc5ccc(NC(=O)NC6CC6)cc5F)c4s3)nc2)CC1` [Compound 310, 2-(4-((6-(7-(4-(3-cyclopropylureido)-2-fluorophenoxy)thieno[3,2-b]pyridin-2-yl)pyridin-3-yl)methyl)piperazin-1-yl)-2-oxoethyl acetate], the pIC50 is > 7.30.

For `CC(C)(C)C(=O)OC1CN(C(=O)c2cc3nccc(Oc4ccc(NC(=O)NC5CC5)cc4F)c3s2)C1` [Compound 454], the pIC50 was > 7.30.

Regarding `CN(C)CCNCC(=O)N1CCN(Cc2ccc(-c3cc4nccc(Oc5ccc(NC(=O)NC6CC6)cc5F)c4s3)nc2)CC1` [Compound 549, 1-cyclopropyl-3-(4-(2-(5-((4-(2-(2-(dimethylamino)ethylamino)acetyl)piperazin-1-yl)methyl)pyridin-2-yl)thieno[3,2-b]pyridin-7-yloxy)-3-fluorophenyl)urea], the negative logarithm of the IC50 (pIC50) is > 7.30.

Consider `O=C(Nc1ccc(Oc2ccnc3cc(C(=O)N4CC[C@H](O)C4)sc23)c(F)c1)NC1CC1` [Compound 461, (S)-1-cyclopropyl-3-(3-fluoro-4-(2-(3-hydroxypyrrolidine-1-carbonyl)thieno[3,2-b]pyridin-7-yloxy)phenyl)urea], for which the negative logarithm of the IC50 (pIC50) was > 7.30.

Regarding `O=C(Nc1ccc(Oc2ccnc3cc(-c4ccc(CN5CCN(C(=O)CCO)CC5)cn4)sc23)c(F)c1)NC1CC1` [Compound 545], the pIC50 is > 7.30.

`O=C(Nc1ccc(Oc2ccnc3cc(-c4ccc(C(=O)N5CCN(C(=O)CO)CC5)cn4)sc23)c(F)c1)NC1CC1` [Compound 584]: the pIC50 was > 7.30.

With `O=C(Nc1ccc(Oc2ccnc3cc(-c4ccc(CN5CCN(C(=O)[C@H]6CCC(=O)O6)CC5)cn4)sc23)c(F)c1)NC1CC1` [Compound 543], the negative logarithm of the IC50 (pIC50) is > 7.30.

With `O=C(Nc1ccc(Oc2ccnc3cc(-c4ccc(CN5CCN(CCF)CC5)cn4)sc23)c(F)c1)NC1CC1` [Compound 420, 1-Cyclopropyl-3-(3-fluoro-4-(2-(5-((4-(2-fluoroethyl)piperazin-1-yl)methyl)pyridin-2-yl)thieno[3,2-b]pyridin-7-yloxy)phenyl)urea], the negative-log IC50 (pIC50) was > 7.30.

As to `O=C(O)CC1CCN(Cc2ccc(-c3cc4nccc(Oc5ccc(NC(=O)NC6CC6)cc5F)c4s3)nc2)CC1` [Compound 63, 2-(l-((6-(7-(4-(3-cyclopropylureido)-2-fluorophenoxy)thieno[3,2-b]pyridin-2-yl)pyridin-3-yl)methyl)piperidin-4-yl)acetic acid], the pIC50 is > 7.30.

As for `COC(=O)CC(=O)N1CCN(Cc2ccc(-c3cc4nccc(Oc5ccc(NC(=O)NC6CC6)cc5F)c4s3)nc2)CC1` [Compound 506, methyl 3-(4-((6-(7-(4-(3-cyclopropylureido)-2-fluorophenoxy)thieno[3,2-b]pyridin-2-yl)pyridin-3-yl)methyl)piperazin-1-yl)-3-oxopropanoate], the pIC50 is > 7.30.

With `CCN(C(=O)OC(C)(C)C)[C@H]1CCN(C(=O)c2cc3nccc(Oc4ccc(NC(=O)NC5CC5)cc4F)c3s2)C1` [Compound 456], the pIC50 was > 7.30.

Regarding `CCOC(=O)C1CCCN(C(=O)c2ccc(-c3cc4nccc(Oc5ccc(NC(=O)NC6CC6)cc5F)c4s3)nc2)C1` (centres unmarked) [Compound 237, ethyl 1-(6-(7-(4-(3-cyclopropylureido)-2-fluorophenoxy)thieno-[3,2-b]pyridin-2-yl)nicotinoyl)piperidine-3-carboxylate], the pIC50 is > 7.30.

Regarding `O=C(Nc1ccc(Oc2ccnc3cc(-c4ccc(C(=O)N5CCCC(C(=O)O)C5)cn4)sc23)c(F)c1)NC1CC1` (centres unmarked) [Compound 240, 1-(6-(7-(4-(3-cyclopropylureido)-2-fluorophenoxy)thieno[3,2-b]-pyridin-2-yl)nicotinoyl)piperidine-3-carboxylic acid], the pIC50 was > 7.30.

Regarding `COCCNCc1ccc(-c2cc3nccc(Oc4ccc(NC(CC(=O)N(C)c5ccccc5)C(F)(F)F)cc4F)c3s2)nc1` (centres unmarked) [Compound 21, 4,4,4-trifluoro-3-(3-fluoro-4-(2-(5-((2-methoxyethylamino)methyl)pyridin-2-yl)thieno[3,2-b]pyridin-7-yloxy)phenylamino)-N-methyl-N-phenylbutanamide], the pIC50 was > 7.30.

On to `O=C(Nc1ccc(Oc2ccnc3cc(-c4ccc(CN5CCN(Cc6ccccn6)CC5)cn4)sc23)c(F)c1)NC1CC1` [Compound 326, 1-cyclopropyl-3-(3-fluoro-4-(2-(5-((4-(pyridin-2-ylmethyl)piperazin-1-yl)methyl)pyridin-2-yl)thieno[3,2-b]pyridin-7-yloxy)phenyl)urea], for which the negative-log IC50 (pIC50) was > 7.30.

In the case of `O=C(Cn1cc(-c2cc3nccc(Oc4ccc(NC(=O)NC5CC5)cc4F)c3s2)nn1)NCc1cccnc1` [Compound 381], the pIC50 is > 7.30.

`COCCOCCOCCNC(=O)N1CCN(Cc2ccc(-c3cc4nccc(Oc5ccc(NC(=O)NC6CC6)cc5F)c4s3)nc2)CC1` [Compound 596, 4-((6-(7-(4-(3-Cyclopropylureido)-2-fluorophenoxy)thieno[3,2-b]pyridin-2-yl)pyridin-3-yl)methyl)-N-(2-(2-(2-methoxyethoxy)ethoxy)ethyl)piperazine-1-carboxamide]: the pIC50 is > 7.30.

For the compound `O=C(Nc1ccc(Oc2ccnc3cc(-c4ccc(CN5CCN(C(=O)CCCC[C@H]6SC[C@H]7NC(=O)N[C@H]76)CC5)cn4)sc23)c(F)c1)NC1CC1` [Compound 535], the pIC50 is > 7.30.

For `CNC1CCN(C(=O)c2ccc(-c3cc4nccc(Oc5ccc(NC(=O)NC6CC6)cc5F)c4s3)nc2)CC1` [Compound 399], the pIC50 is > 7.30.

Consider `CC(=O)OCC(=O)N1CCN(Cc2ccc(-c3cc4nccc(Oc5ccc(NC(=O)NC6CC6)cc5F)c4s3)nc2)C[C@@H]1C` [Compound 528, (S)-2-(4-((6-(7-(4-(3-cyclopropylureido)-2-fluorophenoxy)thieno[3,2-b]pyridin-2-yl)pyridin-3-yl)methyl)-2-methylpiperazin-1-yl)-2-oxoethyl acetate], for which the pIC50 was > 7.30.

Turning to `C[C@H]1CN(Cc2ccc(-c3cc4nccc(Oc5ccc(NC(=O)NC6CC6)cc5F)c4s3)nc2)CCN1` [Compound 527], the pIC50 was > 7.30.

Consider `CC(=O)N[C@H]1CCN(Cc2ccc(-c3cc4nccc(Oc5ccc(NC(=O)NC6CC6)cc5F)c4s3)nc2)C1=O` [Compound 44, (S)-N-(l-((6-(7-(4-(3-cyclopropylureido)-2-fluorophenoxy)thieno[3,2-b]pyridin-2-yl)pyridin-3-yl)methyl)-2-oxopyrrolidin-3-yl)acetamide], for which the pIC50 was > 7.30.

As for `COCCOCCOCCOCCN(Cc1ccc(-c2cc3nccc(Oc4ccc(NC(=O)NC5CC5)c(F)c4F)c3s2)nc1)C(=O)CO` [Compound 259, N-((6-(7-(4-(3-cyclopropylureido)-2,3-difluorophenoxy)thieno-[3,2-b]pyridin-2-yl)pyridin-3-yl)methyl)-2-hydroxy-N-(2,5,8,11-tetraoxatridecan-13-yl)acetamide], the pIC50 was > 7.30.

On to `COCCN(Cc1ccc(-c2cc3nccc(Oc4ccc(NC(=O)NC5CC5)cc4F)c3s2)cc1)C(=O)NC(C)C` [Compound 193, 1-(4-(7-(4-cyclopropylaminocarbonylamino-2-fluorophenoxy)thieno-[3,2-b]pyridin-2-yl)benzyl)-3-isopropyl-1-(2-methoxyethyl)urea], for which the pIC50 is > 7.30.

Consider `CC1(C)CN(Cc2ccc(-c3cc4nccc(Oc5ccc(NC(=O)NC6CC6)cc5F)c4s3)nc2)CCN1C(=O)CO` [Compound 498, 1-cyclopropyl-3-(3-fluoro-4-(2-(5-((4-(2-hydroxyacetyl)-3,3-dimethylpiperazin-1-yl)methyl)pyridin-2-yl)thieno[3,2-b]pyridin-7-yloxy)phenyl)urea], for which the pIC50 is > 7.30.

`O=C(Nc1ccc(Oc2ccnc3cc(C(=O)N4CC[C@@H](O)C4)sc23)c(F)c1)NC1CC1` [Compound 460, (R)-1-cyclopropyl-3-(3-fluoro-4-(2-(3-hydroxypyrrolidine-1-carbonyl)thieno[3,2-b]pyridin-7-yloxy)phenyl)urea]: the pIC50 is > 7.30.

As for `O=C(Nc1ccc(Oc2ccnc3cc(-c4ccc(CNc5cccc(OCCN6CCOCC6)c5)cn4)sc23)c(F)c1)NC1CC1` [Compound 341, 1-cyclopropyl-3-(3-fluoro-4-(2-(5-((3-(2-morpholinoethoxy)phenylamino)methyl)pyridin-2-yl)thieno[3,2-b]pyridin-7-yloxy)phenyl)urea], the negative-log IC50 (pIC50) is > 7.30.
